Measured values from patent publication US20240124417A1, “COMPOUNDS USEFUL AS IMMUNOMODULATORS” (Bristol-Myers Squibb Company, priority 2019, published 2024).
pIC50: −log10 of the molar value.

Target: T1, PD-1/PD-L1 (Homo sapiens, UniProt Q9NZQ7)
T1 construct: TVMV protease site linker (C); made in house; host or cells: HEK293T cells
Test: PD-1/PD-L1 Homogenous Time-Resolved Fluorescence (HTRF) binding assay
Conditions: PD-L1-His 10 nM, PD-1-Ig 20 nM
How it was run: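 Time-resolved FRET read-out using Eu-cryptate anti-Ig (1 nM final) and APC anti-His (20 nM final). Tagged extracellular domains were used in BSA/Tween-20-supplemented dPBS, with compound pre-incubated 15 min with PD-L1-His (10 nM) before PD-1-Ig (20 nM) was added for 15 min. Other human pairs: PD-L2-His 5 nM with PD-1-Ig 20 nM; PD-L1-Ig 10 nM with CD80-His 100 nM.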

T1 sequence (Q9NZQ7 18-239): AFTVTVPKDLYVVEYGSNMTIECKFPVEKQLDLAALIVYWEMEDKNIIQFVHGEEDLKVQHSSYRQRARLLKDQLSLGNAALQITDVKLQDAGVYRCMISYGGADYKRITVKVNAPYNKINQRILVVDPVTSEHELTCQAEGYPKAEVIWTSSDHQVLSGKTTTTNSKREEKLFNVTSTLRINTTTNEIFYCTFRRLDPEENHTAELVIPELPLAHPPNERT

Row | pIC50 | Compound
1 | 8.41 | Cc1c(COc2cc(OCc3cncc(C#N)c3)c(CN(C)Cc3cc(C)n(C)n3)cc2Cl)cccc1-c1cccc(OCCCN2CC[C@@H](O)C2)c1C [Example 2541, (R)-5-((4-chloro-2-((((1,5-dimethyl-1H-pyrazol-3-yl)methyl)(methyl)amino)methyl)-5-((3′-(3-(3-hydroxypyrrolidin-1-yl)propoxy)-2,2′-dimethyl-[1,1′-biphenyl]-3-yl)methoxy)phenoxy)methyl)nicotinonitrile]
2 | 7.45 | Cc1c(COc2cc(OCc3cncc(C#N)c3)c(CNC3(c4ncon4)CC(OCc4ccccc4)C3)cc2Cl)cccc1-c1cccc(OCC2CCCN(C)C2)c1Cl (stereo not drawn) [Example 2625, 5-((2-(((3-(benzyloxy)-1-(1,2,4-oxadiazol-3-yl)cyclobutyl)amino)methyl)-4-chloro-5-((2′-chloro-2-methyl-3′-((1-methylpiperidin-3-yl)methoxy)-[1,1′-biphenyl]-3-yl)methoxy)phenoxy)methyl)nicotinonitrile]
3 | 8.59 | Cc1c(COc2cc(OCc3cncc(C#N)c3)c(CNCc3cncnc3)cc2Cl)cccc1-c1cccc(OCC2CCCN(C)C2)c1Cl (stereo not drawn) [Example 2584, 5-((4-chloro-5-((2′-chloro-2-methyl-3′-((1-methylpiperidin-3-yl)methoxy)-[1,1′-biphenyl]-3-yl)methoxy)-2-(((pyrimidin-5-ylmethyl)amino)methyl)phenoxy)methyl)nicotinonitrile]
4 | 8.27 | Cc1noc(C)c1CN(C)Cc1cc(Cl)c(OCc2cccc(-c3cccc(OCCCN4CC[C@@H](O)C4)c3C)c2C)cc1OCc1cncc(C#N)c1 [Example 2527, (R)-5-((4-chloro-2-((((3,5-dimethylisoxazol-4-yl)methyl)(methyl)amino)methyl)-5-((3′-(3-(3-hydroxypyrrolidin-1-yl)propoxy)-2,2′-dimethyl-[1,1′-biphenyl]-3-yl)methoxy)phenoxy)methyl)nicotinonitrile]
5 | 8.57 | Cc1c(COc2cc(OCc3cncc(C#N)c3)c(CN(C)Cc3nccs3)cc2Cl)cccc1-c1cccc(OCCCN2CC[C@@H](O)C2)c1C [Example 2533, (R)-5-((4-chloro-5-((3′-(3-(3-hydroxypyrrolidin-1-yl)propoxy)-2,2′-dimethyl-[1,1′-biphenyl]-3-yl)methoxy)-2-((methyl(thiazol-2-ylmethyl)amino)methyl)phenoxy)methyl)nicotinonitrile]
6 | 8.74 | CC(=O)NC1CCN(CCCOc2cccc(-c3cccc(COc4cc(OCc5cncc(C#N)c5)c(CNc5nnn[nH]5)cc4Cl)c3C)c2Cl)CC1 [Example 1056, N-(1-(3-((3′-((4-(((1H-Tetrazol-5-yl)amino)methyl)-2-chloro-5-((5-cyanopyridin-3-yl)-methoxy)phenoxy)methyl)-2-chloro-2′-methyl-[1,1′-biphenyl]-3-yl)oxy)propyl)piperidin-4-yl)acetamide]
7 | 8.48 | Cc1n[nH]c(C)c1CN(C)Cc1cc(Cl)c(OCc2cccc(-c3cccc(OCCCN4CC[C@@H](O)C4)c3C)c2C)cc1OCc1cncc(C#N)c1 [Example 2572, (R)-5-((4-chloro-2-((((3,5-dimethyl-1H-pyrazol-4-yl)methyl)(methyl)amino)methyl)-5-((3′-(3-(3-hydroxypyrrolidin-1-yl)propoxy)-2,2′-dimethyl-[1,1′-biphenyl]-3-yl)methoxy)phenoxy)methyl)nicotinonitrile]
8 | 8.60 | Cc1c(COc2cc(OCc3cncc(C#N)c3)c(CN3CCCC(c4cc[nH]n4)C3)cc2Cl)cccc1-c1cccc(OCCCN2CC[C@@H](O)C2)c1C (stereo partly drawn) [Example 2568, 5-((2-((3-(1H-pyrazol-3-yl)piperidin-1-yl)methyl)-4-chloro-5-((3′-(3-((R)-3-hydroxypyrrolidin-1-yl)propoxy)-2,2′-dimethyl-[1,1′-biphenyl]-3-yl)methoxy)phenoxy)methyl)nicotinonitrile]
9 | 8.64 | Cc1nnc(CNCc2cc(Cl)c(OCc3cccc(-c4cccc(OCC5CCCN(C)C5)c4Cl)c3C)cc2OCc2cncc(C#N)c2)[nH]1 (stereo not drawn) [Example 2604, 5-((4-chloro-5-((2′-chloro-2-methyl-3′-((1-methylpiperidin-3-yl)methoxy)-[1,1′-biphenyl]-3-yl)methoxy)-2-((((5-methyl-4H-1,2,4-triazol-3-yl)methyl)amino)methyl)phenoxy)methyl)nicotinonitrile]
10 | 8.57 | CC(=O)NC1CCN(CCCOc2cccc(-c3cccc(COc4cc(OCc5cncc(C#N)c5)c(CN5CCCC(c6nnc[nH]6)C5)cc4Cl)c3C)c2C)CC1 (stereo not drawn) [Example 1039, N-(1-(3-((3′-((4-((3-(4H-1,2,4-Triazol-3-yl)piperidin-1-yl)methyl)-2-chloro-5-((5-cyano-pyridin-3-yl)methoxy)phenoxy)methyl)-2,2′-dimethyl-[1,1′-biphenyl]-3-yl)oxy)propyl)-piperidin-4-yl)acetamide]
11 | 8.12 | CC(=O)NC1CCN(CCCOc2cccc(-c3cccc(COc4cc(OCc5cncc(C#N)c5)c(CN5CCCCC5c5cc[nH]n5)cc4Cl)c3C)c2C)CC1 (stereo not drawn) [Example 1053, N-(1-(3-((3′-((4-((2-(1H-Pyrazol-3-yl)piperidin-1-yl)methyl)-2-chloro-5-((5-cyano-pyridin-3-yl)methoxy)phenoxy)methyl)-2,2′-dimethyl-[1,1′-biphenyl]-3-yl)oxy)propyl)-piperidin-4-yl)acetamide]
12 | 7.91 | Cc1c(COc2cc(OCc3cncc(C#N)c3)c(CN(C)CCc3nc4cc(Cl)ccc4[nH]3)cc2Cl)cccc1-c1cccc(OCCCN2CC[C@@H](O)C2)c1C [Example 2517, (R)-5-((4-chloro-2-(((2-(5-chloro-1H-benzo[d]imidazol-2-yl)ethyl)(methyl)amino)methyl)-5-((3′-(3-(3-hydroxypyrrolidin-1-yl)propoxy)-2,2′-dimethyl-[1,1′-biphenyl]-3-yl)methoxy)phenoxy)methyl)nicotinonitrile]
13 | 8.72 | Cc1c(COc2cc(OCc3cncc(C#N)c3)c(CN(C)Cc3ccn(C)n3)cc2Cl)cccc1-c1cccc(OCCCN2CC[C@@H](O)C2)c1C [Example 2026, (R)-5-((4-chloro-5-((3′-(3-(3-hydroxypyrrolidin-1-yl)propoxy)-2,2′-dimethyl-[1,1′-biphenyl]-3-yl)methoxy)-2-((methyl((1-methyl-1H-pyrazol-3-yl)methyl)amino)methyl)phenoxy)methyl)nicotinonitrile]
14 | 8.54 | Cc1c(COc2cc(OCc3cncc(C#N)c3)c(CNCc3ncc[nH]3)cc2Cl)cccc1-c1cccc(OC2CCC(N3CCCC3)CC2)c1Cl (stereo not drawn) [Example 2053, 5-((2-((((1H-imidazol-2-yl)methyl)amino)methyl)-4-chloro-5-((2′-chloro-2-methyl-3′-((4-(pyrrolidin-1-yl)cyclohexyl)oxy)-[1,1′-biphenyl]-3-yl)methoxy)phenoxy)methyl)nicotinonitrile]
15 | 8.85 | Cc1c(COc2cc(OCc3cncc(C#N)c3)c(CNCc3ccc4cc[nH]c4c3)cc2Cl)cccc1-c1cccc(OCC2CCCN(C)C2)c1Cl (stereo not drawn) [Example 2606, 5-((2-((((1H-indol-6-yl)methyl)amino)methyl)-4-chloro-5-((2′-chloro-2-methyl-3′-((1-methylpiperidin-3-yl)methoxy)-[1,1′-biphenyl]-3-yl)methoxy)phenoxy)methyl)nicotinonitrile]
16 | 9.15 | Cc1c(COc2cc(OCc3cncc(C#N)c3)c(CN(C)Cc3csc(N)n3)cc2Cl)cccc1-c1cccc(OCCCN2CC[C@@H](O)C2)c1C [Example 2521, (R)-5-((2-((((2-aminothiazol-4-yl)methyl)(methyl)amino)methyl)-4-chloro-5-((3′-(3-(3-hydroxypyrrolidin-1-yl)propoxy)-2,2′-dimethyl-[1,1′-biphenyl]-3-yl)methoxy)phenoxy)methyl)nicotinonitrile]
17 | 9.15 | Cc1ncsc1CCNCc1cc(Cl)c(OCc2cccc(-c3cccc(OCC4CCCN(C)C4)c3Cl)c2C)cc1OCc1cncc(C#N)c1 (stereo not drawn) [Example 2594, 5-((4-chloro-5-((2′-chloro-2-methyl-3′-((1-methylpiperidin-3-yl)methoxy)-[1,1′-biphenyl]-3-yl)methoxy)-2-(((2-(4-methylthiazol-5-yl)ethyl)amino)methyl)phenoxy)methyl)nicotinonitrile]
18 | 8.96 | Cc1nc2ccc(CNCc3cc(Cl)c(OCc4cccc(-c5cccc(OCC6CCCN(C)C6)c5Cl)c4C)cc3OCc3cncc(C#N)c3)cc2[nH]1 (stereo not drawn) [Example 2609, 5-((4-chloro-5-((2′-chloro-2-methyl-3′-((1-methylpiperidin-3-yl)methoxy)-[1,1′-biphenyl]-3-yl)methoxy)-2-((((2-methyl-1H-benzo[d]imidazol-6-yl)methyl)amino)methyl)phenoxy)methyl)nicotinonitrile]
19 | 9.30 | Cc1c(COc2cc(OCc3cncc(C#N)c3)c(CN(C)Cc3ncc[nH]3)cc2Cl)cccc1-c1cccc(OCCCN2CC[C@@H](O)C2)c1C [Example 2008, (R)-5-((2-((((1H-imidazol-2-yl)methyl)(methyl)amino)methyl)-4-chloro-5-((3′-(3-(3-hydroxypyrrolidin-1-yl)propoxy)-2,2′-dimethyl-[1,1′-biphenyl]-3-yl)methoxy)phenoxy)methyl)nicotinonitrile]
20 | 8.68 | Cc1c(COc2cc(OCc3cncc(C#N)c3)c(CN3CCC(c4nnn[nH]4)C3)cc2Cl)cccc1-c1cccc(OCCCNC[C@H](O)CO)c1Cl (stereo partly drawn) [Example 1033, 5-((2-((3-(1H-Tetrazol-5-yl)pyrrolidin-1-yl)methyl)-4-chloro-5-((2′-chloro-3′-(3-(((S)-2,3-dihydroxypropyl)amino)propoxy)-2-methyl-[1,1′-biphenyl]-3-yl)methoxy)phenoxy)-methyl)nicotinonitrile]
21 | 8.77 | Cc1c(COc2cc(OCc3cncc(C#N)c3)c(CNCc3ccnn3C)cc2Cl)cccc1-c1cccc(OCC2CCCN(C)C2)c1Cl (stereo not drawn) [Example 2614, 5-((4-chloro-5-((2′-chloro-2-methyl-3′-((1-methylpiperidin-3-yl)methoxy)-[1,1′-biphenyl]-3-yl)methoxy)-2-((((1-methyl-1H-pyrazol-5-yl)methyl)amino)methyl)phenoxy)methyl)nicotinonitrile]
